Laboratory results taken from patent US8877770B2, “Polymorph of rifaximin and process for the preparation thereof” (Clarochem Ireland Limited, priority 2011, dated 2014).
Entries after “also recorded” stand apart in the source; their conditions may differ.

Tests used:
[1] = Stability testing following conditioning in a humid atmosphere (80% RH, 24 hours); format: physicochemical; conditions: 80% relative humidity
Experimental: Stability testing of the polymorph of Rifaximin following conditioning in a humid atmosphere.
Two samples of the polymorphic form κ of Rifaximin: 63/11A, which was obtained by means of the procedure of example 4, and 69/11B, which was obtained by means of the procedure of example 1, were maintained for 24 hours in an environment of relative humidity equal to 80%. At the end of the conditioning, an increase of approximately 3%, ascribable to the adsorption of water from the environment, was recorded.

[2] = Exposure at room temperature to variable relative humidity for 12 days and to RH 80% for 5 months; format: physicochemical
Description: The polymorph obtained with the procedure described in example 2 was exposed at room temperature to variable relative humidity for a time period of 12 days, and then for a period of 5 months. When the humidity was increased, there were increases in the mass as shown in Table 2 for 12 days and Table 3 for 5 months.

increase of mass of the sample (adsorption of water) [1]: about 3%
increase of mass of the sample (adsorption of water) ([1]; listed as 63/11A): approximately 3%
increase of mass of the sample (adsorption of water) ([1]; listed as 69/11B): approximately 3%
% water after exposure to 80% humidity (RH 80%) ([2]; 1 month): 4.38%
% water after exposure to 80% humidity (RH 80%) ([2]; 2 months): 4.45%
% water after exposure to 80% humidity (RH 80%) ([2]; 5 months): 4.55%
value at which the increase of mass becomes stable ([2]; 80% humidity, stable after 4 days, unchanged after 5 months): approximately 4.5%
% water after exposure to 80% humidity (RH 80%) ([2]; 4 days): 4.38%
% water after exposure to 80% humidity (RH 80%) ([2]; 7 days): 4.44%
% water after exposure to 80% humidity (RH 80%) ([2]; 14 days): 4.37%
% water following exposure to 80% and 45% humidity ([2]; RH 80% 4 days, total days 4): 4.66%
DRX pattern after conditioning ([2]; RH 80%, 5 months): correspond to that one shown in FIG. 1
nature of the water adsorption process ([2]; cycling between RH 80% and RH 45%, 12 days): superficial and reversible
% water after exposure to 80% humidity (RH 80%) ([2]; initial): 1.85%
% water following exposure to 80% and 45% humidity ([2]; initial, total days 0): 1.85%
maximum adsorption ([2]; prolonged exposure to relative humidity of 80%): 4.5%
% water following exposure to 80% and 45% humidity ([2]; then RH 45% 1 day, total days 12): 3.43%
% water following exposure to 80% and 45% humidity ([2]; then RH 45% 3 days, total days 7): 3.40%
% water following exposure to 80% and 45% humidity ([2]; then RH 80% 4 days, total days 11): 4.52%
Structure (SMILES): CO[C@H]1/C=C/O[C@@]2(C)Oc3c(C)c(O)c4c(O)c(c5c(nc6cc(C)ccn65)c4c3C2=O)NC(=O)/C(C)=C\C=C\[C@H](C)[C@H](O)[C@@H](C)[C@@H](O)[C@@H](C)[C@H](OC(C)=O)[C@@H]1C [polymorph κ, (2S,16Z,18E,20S,21S,22R,23R,24R,25S,26S,27S,28E)-5,6,21,23,25-pentahydroxy-27-methoxy-2,4,11,16,20,22,24,26-octamethyl-2,7-(epoxypentadeca-[1,11,13]-trienimmino)-benzofuro-[4,5-e]-pirido-[1,2-α]-benzimidazol-1,15(2H)-dione,25-acetate]
XRPD pattern pre/post-conditioning [1]: substantially identical to one another; also recorded: without registering significant changes in the XRPD pattern
